Reference: publication PMC4307180, “Overcoming myelosuppression due to synthetic lethal toxicity for FLT3-targeted acute myeloid leukemia therapy” (eLife, 2014)

Tests used:
purified FLT3 WT = target: T1, purified FLT3 WT (Homo sapiens, UniProt P36888); experiment: Radiolabeled purified kinase assay (Figure 1B)
T1 sequence (P36888 27-993): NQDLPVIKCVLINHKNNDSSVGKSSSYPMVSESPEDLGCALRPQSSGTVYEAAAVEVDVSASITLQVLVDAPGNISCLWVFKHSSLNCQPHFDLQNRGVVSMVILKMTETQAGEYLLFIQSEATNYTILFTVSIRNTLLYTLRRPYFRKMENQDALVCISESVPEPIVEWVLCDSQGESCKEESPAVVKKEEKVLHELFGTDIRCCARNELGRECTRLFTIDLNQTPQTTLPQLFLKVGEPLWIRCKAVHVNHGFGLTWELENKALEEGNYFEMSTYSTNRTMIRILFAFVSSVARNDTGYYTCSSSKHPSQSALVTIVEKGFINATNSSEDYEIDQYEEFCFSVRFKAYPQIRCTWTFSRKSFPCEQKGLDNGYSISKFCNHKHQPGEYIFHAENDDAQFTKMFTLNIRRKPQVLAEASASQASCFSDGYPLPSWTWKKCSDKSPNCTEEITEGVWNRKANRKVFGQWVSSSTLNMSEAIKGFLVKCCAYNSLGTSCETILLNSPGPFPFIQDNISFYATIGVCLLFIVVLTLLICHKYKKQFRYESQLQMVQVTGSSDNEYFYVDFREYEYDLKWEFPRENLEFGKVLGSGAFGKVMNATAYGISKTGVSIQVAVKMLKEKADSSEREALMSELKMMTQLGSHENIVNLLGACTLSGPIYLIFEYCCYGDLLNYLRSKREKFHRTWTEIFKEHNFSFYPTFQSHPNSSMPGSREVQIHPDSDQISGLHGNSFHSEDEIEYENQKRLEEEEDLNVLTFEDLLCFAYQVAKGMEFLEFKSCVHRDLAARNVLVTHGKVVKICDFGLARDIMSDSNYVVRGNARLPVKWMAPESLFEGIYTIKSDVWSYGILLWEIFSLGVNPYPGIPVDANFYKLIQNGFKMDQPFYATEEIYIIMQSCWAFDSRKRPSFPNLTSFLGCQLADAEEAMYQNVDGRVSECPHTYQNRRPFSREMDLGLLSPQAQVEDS

HMC1.1 cells (KIT V560G) = details: proliferation, Figure 2A and reference values; ref de Jong and Zon, 2005; Guo et al., 2007; Kampa-Shittenhelm et al., 2013; cited from earlier work
PDGFRβ = PDGFRβ (Homo sapiens, UniProt P09619); experiment: Reaction Biology Corp kinase assay at Km-ATP (Figure 1C), PDGFRβ
PDGFRβ, sequence (P09619 33-1106): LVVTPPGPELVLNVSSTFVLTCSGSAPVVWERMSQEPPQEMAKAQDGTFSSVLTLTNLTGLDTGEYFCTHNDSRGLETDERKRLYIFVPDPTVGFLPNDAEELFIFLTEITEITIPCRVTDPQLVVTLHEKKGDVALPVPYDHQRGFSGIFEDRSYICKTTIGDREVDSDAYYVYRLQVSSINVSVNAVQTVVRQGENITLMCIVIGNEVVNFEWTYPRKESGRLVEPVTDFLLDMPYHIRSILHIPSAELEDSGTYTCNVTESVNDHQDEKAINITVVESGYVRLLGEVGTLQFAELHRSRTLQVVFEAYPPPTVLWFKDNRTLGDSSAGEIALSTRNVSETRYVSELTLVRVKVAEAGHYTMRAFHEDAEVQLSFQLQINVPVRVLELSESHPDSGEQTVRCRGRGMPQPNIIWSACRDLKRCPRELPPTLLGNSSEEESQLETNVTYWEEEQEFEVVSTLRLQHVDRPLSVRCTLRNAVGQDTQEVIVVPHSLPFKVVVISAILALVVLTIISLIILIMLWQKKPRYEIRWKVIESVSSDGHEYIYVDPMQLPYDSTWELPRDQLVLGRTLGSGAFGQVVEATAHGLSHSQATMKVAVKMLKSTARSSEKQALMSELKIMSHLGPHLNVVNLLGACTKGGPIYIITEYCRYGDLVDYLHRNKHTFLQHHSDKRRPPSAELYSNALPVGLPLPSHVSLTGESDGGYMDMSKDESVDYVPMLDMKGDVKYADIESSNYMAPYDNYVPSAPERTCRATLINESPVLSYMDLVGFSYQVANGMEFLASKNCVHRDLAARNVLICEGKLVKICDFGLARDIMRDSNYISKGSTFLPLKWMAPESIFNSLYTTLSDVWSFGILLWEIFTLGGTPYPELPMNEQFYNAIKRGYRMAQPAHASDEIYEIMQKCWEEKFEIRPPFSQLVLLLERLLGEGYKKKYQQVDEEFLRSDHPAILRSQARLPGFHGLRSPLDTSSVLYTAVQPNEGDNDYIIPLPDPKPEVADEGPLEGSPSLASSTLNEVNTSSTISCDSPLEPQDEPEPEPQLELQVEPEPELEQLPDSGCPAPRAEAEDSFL

KIT = KIT (Homo sapiens, UniProt P10721); experiment: Reaction Biology Corp kinase assay at Km-ATP (Figure 1C), KIT
KIT, sequence (P10721 26-976): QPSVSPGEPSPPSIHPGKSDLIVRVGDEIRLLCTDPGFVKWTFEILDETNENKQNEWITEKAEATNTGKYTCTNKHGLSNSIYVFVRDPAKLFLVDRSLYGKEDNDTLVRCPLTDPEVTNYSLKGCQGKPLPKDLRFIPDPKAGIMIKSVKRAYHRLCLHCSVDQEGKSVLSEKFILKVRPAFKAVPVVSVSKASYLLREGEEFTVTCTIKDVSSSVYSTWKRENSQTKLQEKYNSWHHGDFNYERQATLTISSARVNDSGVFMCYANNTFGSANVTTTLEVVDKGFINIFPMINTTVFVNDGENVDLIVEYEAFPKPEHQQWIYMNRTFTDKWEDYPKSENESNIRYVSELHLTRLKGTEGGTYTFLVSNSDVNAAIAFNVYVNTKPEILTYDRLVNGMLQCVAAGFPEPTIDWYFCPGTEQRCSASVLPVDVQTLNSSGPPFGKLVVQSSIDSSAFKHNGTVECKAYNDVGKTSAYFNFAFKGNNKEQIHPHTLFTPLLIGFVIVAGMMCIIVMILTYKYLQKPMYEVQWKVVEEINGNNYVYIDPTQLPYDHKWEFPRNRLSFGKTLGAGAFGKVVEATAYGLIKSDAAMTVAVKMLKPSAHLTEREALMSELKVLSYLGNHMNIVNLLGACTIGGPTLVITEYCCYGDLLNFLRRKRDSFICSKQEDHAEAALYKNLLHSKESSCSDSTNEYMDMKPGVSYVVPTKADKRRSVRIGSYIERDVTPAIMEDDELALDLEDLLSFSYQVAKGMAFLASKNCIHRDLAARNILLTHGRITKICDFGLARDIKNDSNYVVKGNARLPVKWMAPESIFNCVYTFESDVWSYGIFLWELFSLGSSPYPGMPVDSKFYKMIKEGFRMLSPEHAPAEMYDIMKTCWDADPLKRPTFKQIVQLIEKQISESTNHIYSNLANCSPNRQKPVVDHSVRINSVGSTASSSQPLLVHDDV

FLT3 = target: T2, FLT3 (Homo sapiens, UniProt P36888); experiment: Reaction Biology Corp kinase assay at Km-ATP (Figure 1C), FLT3
T2 sequence (P36888 27-993): T1 sequence (P36888 27-993)

PDGFRα = PDGFRα (Homo sapiens, UniProt P16234); experiment: Reaction Biology Corp kinase assay at Km-ATP (Figure 1C), PDGFRα
PDGFRα, sequence (P16234 24-1089): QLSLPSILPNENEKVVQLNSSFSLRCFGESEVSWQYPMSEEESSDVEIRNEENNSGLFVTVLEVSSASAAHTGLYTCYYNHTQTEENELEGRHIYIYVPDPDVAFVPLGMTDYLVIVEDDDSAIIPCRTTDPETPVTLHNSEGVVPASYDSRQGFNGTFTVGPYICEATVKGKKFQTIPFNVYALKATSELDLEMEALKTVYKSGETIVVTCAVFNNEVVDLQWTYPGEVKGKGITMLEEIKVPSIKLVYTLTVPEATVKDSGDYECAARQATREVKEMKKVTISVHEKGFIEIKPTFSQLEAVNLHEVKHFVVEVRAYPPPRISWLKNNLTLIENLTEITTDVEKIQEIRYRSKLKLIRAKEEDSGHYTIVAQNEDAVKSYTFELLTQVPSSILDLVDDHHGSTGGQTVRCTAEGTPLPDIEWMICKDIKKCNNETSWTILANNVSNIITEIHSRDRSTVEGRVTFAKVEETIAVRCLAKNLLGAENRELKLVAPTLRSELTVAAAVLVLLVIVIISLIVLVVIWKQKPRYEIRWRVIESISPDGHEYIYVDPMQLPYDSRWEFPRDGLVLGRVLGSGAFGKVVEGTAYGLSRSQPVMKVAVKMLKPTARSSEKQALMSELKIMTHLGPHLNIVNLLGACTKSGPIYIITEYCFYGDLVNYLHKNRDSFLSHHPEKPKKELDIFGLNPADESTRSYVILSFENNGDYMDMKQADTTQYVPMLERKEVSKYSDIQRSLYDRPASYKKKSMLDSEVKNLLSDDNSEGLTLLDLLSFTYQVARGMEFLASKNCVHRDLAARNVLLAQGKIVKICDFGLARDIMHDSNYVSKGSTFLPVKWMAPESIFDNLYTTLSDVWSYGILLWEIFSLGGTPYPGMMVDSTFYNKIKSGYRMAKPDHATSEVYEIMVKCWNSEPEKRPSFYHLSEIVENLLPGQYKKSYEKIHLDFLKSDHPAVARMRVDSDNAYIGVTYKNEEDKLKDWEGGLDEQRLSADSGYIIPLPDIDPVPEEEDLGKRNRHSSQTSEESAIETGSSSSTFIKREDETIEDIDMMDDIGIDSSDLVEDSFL

CSF1R = CSF1R (Homo sapiens, UniProt P07333); experiment: Reaction Biology Corp kinase assay at Km-ATP (Figure 1C), CSF1R
CSF1R, sequence (P07333 20-972): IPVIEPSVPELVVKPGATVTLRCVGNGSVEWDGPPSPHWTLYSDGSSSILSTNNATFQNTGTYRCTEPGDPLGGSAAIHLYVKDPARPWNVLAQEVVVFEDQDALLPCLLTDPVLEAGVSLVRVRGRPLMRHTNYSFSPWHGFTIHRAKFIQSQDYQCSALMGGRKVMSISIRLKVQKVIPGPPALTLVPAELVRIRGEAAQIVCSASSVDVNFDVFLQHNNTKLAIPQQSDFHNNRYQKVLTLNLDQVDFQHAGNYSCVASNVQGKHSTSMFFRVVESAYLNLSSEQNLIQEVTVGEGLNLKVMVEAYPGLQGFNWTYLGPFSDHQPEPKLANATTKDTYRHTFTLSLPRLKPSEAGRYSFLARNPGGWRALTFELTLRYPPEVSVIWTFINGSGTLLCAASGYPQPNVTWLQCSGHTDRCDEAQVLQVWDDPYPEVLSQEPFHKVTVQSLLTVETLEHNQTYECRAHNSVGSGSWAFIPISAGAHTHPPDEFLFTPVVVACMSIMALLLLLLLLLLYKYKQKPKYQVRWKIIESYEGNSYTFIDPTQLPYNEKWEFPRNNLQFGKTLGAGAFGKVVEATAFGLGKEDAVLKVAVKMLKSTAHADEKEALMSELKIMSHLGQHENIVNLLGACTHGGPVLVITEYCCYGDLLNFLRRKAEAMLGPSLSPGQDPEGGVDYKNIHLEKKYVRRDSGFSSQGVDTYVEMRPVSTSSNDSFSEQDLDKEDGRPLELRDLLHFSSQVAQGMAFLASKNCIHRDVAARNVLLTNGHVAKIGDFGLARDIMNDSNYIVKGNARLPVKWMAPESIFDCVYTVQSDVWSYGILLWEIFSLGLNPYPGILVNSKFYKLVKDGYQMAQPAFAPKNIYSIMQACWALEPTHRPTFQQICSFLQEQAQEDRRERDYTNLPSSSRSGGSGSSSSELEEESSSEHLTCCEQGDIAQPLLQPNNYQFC

SMILES	IC50 (purified FLT3 WT) [nM]	also measured
C[C@@H]1NC(=O)c2c1c1c3ccccc3[nH]c1c1[nH]c3ccccc3c21 [Star 22]	193 ± 28	
C#CC[C@@H]1NC(=O)c2c1c1c3ccccc3[nH]c1c1[nH]c3ccccc3c21 [Star 9]	> 10000	
Cc1ccc(C(=O)Nc2ccc(CN3CCN(C)CC3)c(C(F)(F)F)c2)cc1C#Cc1cnc2cccnn12 [Ponatinib]		inhibition of FLT3- versus KIT-driven cell lines (HMC1.1 cells (KIT V560G)): equipotent inhibition of FLT3 and KIT-driven cell lines
CC[C@@H]1NC(=O)c2c1c1c3ccccc3[nH]c1c1[nH]c3ccccc3c21 [Star 8]	2000	
CCCC[C@@H]1NC(=O)c2c1c1c3ccccc3[nH]c1c1[nH]c3ccccc3c21 [Star 4]	> 10000	
CC(C)(C)[C@@H]1NC(=O)c2c1c1c3ccccc3[nH]c1c1[nH]c3ccccc3c21 [Star 7]	> 10000	
CC(C)C[C@@H]1NC(=O)c2c1c1c3ccccc3[nH]c1c1[nH]c3ccccc3c21 [Star 1]	> 10000	
CCC[C@@H]1NC(=O)c2c1c1c3ccccc3[nH]c1c1[nH]c3ccccc3c21 [Star 3]	> 10000	
CNC(=O)c1cc(Oc2ccc(NC(=O)Nc3ccc(Cl)c(C(F)(F)F)c3)cc2)ccn1 [Sorafenib]		inhibition of FLT3- versus KIT-driven cell lines (HMC1.1 cells (KIT V560G)): equipotent inhibition of FLT3 and KIT-driven cell lines
C[C@@H]1NC(=O)c2c1c1c3ccccc3[nH]c1c1c2c2ccccc2n1CCCN [Star 27-iso]	15 ± 7	
C[C@@H]1NC(=O)c2c1c1c3ccccc3n(CCCCN)c1c1[nH]c3ccccc3c21 [Star 23]	10 ± 4	IC50 (PDGFRβ): 2800 nM; IC50 (KIT): 6550 nM; KIT/FLT3 IC50 ratio (KIT; ratio of Figure 1C IC50s): 728; IC50 (FLT3): 9 ± 1 nM; IC50 (PDGFRα): 2000 nM; IC50 (CSF1R): > 10000 nM
CC(C)[C@@H]1NC(=O)c2c1c1c3ccccc3[nH]c1c1[nH]c3ccccc3c21 [Star 6]	2000	
